For assay [1], the system named is adults of cowpea aphid (Aphis craccivora). Nature of the assay: Leaf dipping insecticidal bioassay, adults of cowpea aphid. As to conditions: 24 h; for LC50: Aphis craccivora, foliar; for Toxic ratio: Acetamiprid's LC50 / the compound's LC50. Type of assay: in vivo. How it is done: (§1) The original batches of cowpea aphid insects were collected from pest's laboratory, Plant Protection Research Institute, Agricultural Research Center. The target compounds were screened for their insecticidal activity towards nymphs and adults of cowpea aphid.
(§2) The insecticidal activities of compounds 4 and 5 were measured by using leaf dipping method under the same reported laboratory conditions. Five concentrations of compound 4, 5 and 0.1% Tween-80 as a surfactant were used. Nearly the same size 30 nymphs and 30 adults of cowpea aphid insects were used for dipping for 10 second in every concentration of each compound (repeat three times). Insects which tested were allowed to stand to dry at room temperature for about half an hour. In the control experiment, the insects were dunked in distilled water and 0.1% tween-80 only. These applications were carried out at 5% relative humidity, and at a temperature of 25° C. After the used insect had dried, they were transferred to glass jars containing water. With a new binocular microscope, the aphid mortality was taken after 24 hrs of treatment. Any aphid that was unable to move was considered dead. The LC50 values used to evaluate the insecticidal activity were estimated by probit analysis.

Assay [2] deals with nymphs of cowpea aphid (Aphis craccivora). Nature of the assay: Leaf dipping insecticidal bioassay, nymphs of cowpea aphid. The following applies: 24 h; for LC50: Aphis craccivora, foliar; for Toxic ratio: Acetamiprid's LC50 / the compound's LC50. It counts as in vivo. How it is done:
as §1, §2

Setting [3] is: adults, after 24 h of treatment, leaf dipping, probit analysis, read-out: LC50.
[4] abbreviates: nymphs, after 24 h of treatment, leaf dipping, probit analysis, read-out: LC50.

Converted amounts (≈) assume the structure as drawn. Read-outs that look alike come from different tables or passages of the source.

What is called LC50 is the concentration that kills 50% of the test population. `C/C(=N\C#N)N(C)Cc1ccc(Cl)nc1` [Acetamiprid, acetamiprid, reference compound]: the LC50 in assay [1] came to 0.267 µg/mL (≈ 1.2 µM); in assay [2] it was 0.045 µg/mL (≈ 0.202 µM). Moreover, the Toxic ratio in assay [1] (adults) and in assay [2] (nymphs) was 1 throughout.
In the case of `CCOc1nc(-c2ccccc2)cc(-c2cccnc2)c1C#N` [Compound 4, 2′-Ethoxy-6′-phenyl[3,4′-bipyridine]-3′-carbonitrile], the LC50 in assay [1] (setting [3]) was roughly 1.3 µg/mL (≈ 4.32 µM); in assay [2] (setting [4]) it was roughly 0.0781 µg/mL (≈ 0.259 µM). For the same compound, the Toxic ratio in assay [1] (adults) was 0.205; in assay [2] (nymphs) it was 0.576.
On to `COc1nc(-c2ccccc2)cc(-c2cccnc2)c1C#N` [Compound 5, 2′-Methoxy-6′-phenyl[3,4′-bipyridine]-3′-carbonitrile], for which the LC50 was 1.4 µg/mL (≈ 4.87 µM) in assay [1] (setting [3]) and roughly 0.0842 µg/mL (≈ 0.293 µM) in assay [2] (setting [4]). For the same compound, the Toxic ratio turned out to be 0.190 in assay [1] (adults) and 0.0534 in assay [2] (nymphs).

Source of the values: patent publication US11925178B1, “2′-alkyloxy-6′-phenyl[3,4′-bipyridine]-3′-carbonitrile as an insecticidal agent against Aphis craccivora” (priority 2023, dated 2024).
